# Source: patent US20220089636A1, “TETRAZOLONE SUBSTITUTED STEROIDS AND USE THEREOF” (Beijing Xuanyi PharmaSciences Co., Ltd., priority 2019, published 2022)
# pEC50: −log10 of the molar value. Where two headings read alike, the source gives them in different places.
# How the values were obtained:
# α1β2γ2 GABAA receptor = molecular target: T1, α1β2γ2 GABAA receptor (Homo sapiens, UniProt P14867+P47870); assay: Patch clamp electrophysiology assay of recombinant α1β2γ2 GABAA receptors (potentiation of 2 μM GABA-evoked Cl- current); assay type: cell-based; conditions: HEK293T cells stably transfected with α1β2γ2 GABAA; for pEC50: whole cell, 2 μM GABA, -80 mV; for Emax: HEK-293T, potentiation of 2 μM GABA current
# T1 construct: expressed in transfected cells
# T1 sequence (P14867 28-456): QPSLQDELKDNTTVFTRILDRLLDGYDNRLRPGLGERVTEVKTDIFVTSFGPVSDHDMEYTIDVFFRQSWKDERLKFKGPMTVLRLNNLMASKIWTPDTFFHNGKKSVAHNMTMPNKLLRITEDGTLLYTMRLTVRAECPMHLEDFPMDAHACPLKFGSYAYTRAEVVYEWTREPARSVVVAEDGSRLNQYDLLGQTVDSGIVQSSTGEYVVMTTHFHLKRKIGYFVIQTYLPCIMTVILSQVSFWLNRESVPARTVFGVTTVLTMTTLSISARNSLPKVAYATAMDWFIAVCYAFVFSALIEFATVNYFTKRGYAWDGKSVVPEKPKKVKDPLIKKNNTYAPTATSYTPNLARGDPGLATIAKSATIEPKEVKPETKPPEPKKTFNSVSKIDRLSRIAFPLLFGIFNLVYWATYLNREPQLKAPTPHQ
# T1 sequence (P47870 25-512 limits assumed): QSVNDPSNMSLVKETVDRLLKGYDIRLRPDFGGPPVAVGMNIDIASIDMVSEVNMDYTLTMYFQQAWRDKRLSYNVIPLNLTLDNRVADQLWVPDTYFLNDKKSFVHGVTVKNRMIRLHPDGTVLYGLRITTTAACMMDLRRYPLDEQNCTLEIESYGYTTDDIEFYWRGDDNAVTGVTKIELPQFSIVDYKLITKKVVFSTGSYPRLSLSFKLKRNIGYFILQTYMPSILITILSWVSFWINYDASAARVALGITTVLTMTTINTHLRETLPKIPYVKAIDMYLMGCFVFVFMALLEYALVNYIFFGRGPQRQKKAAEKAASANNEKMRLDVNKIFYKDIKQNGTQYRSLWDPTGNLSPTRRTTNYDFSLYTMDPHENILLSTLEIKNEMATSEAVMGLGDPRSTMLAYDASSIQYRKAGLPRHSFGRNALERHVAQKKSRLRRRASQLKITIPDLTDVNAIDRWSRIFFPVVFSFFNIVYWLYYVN
# T1 sequence (P18507 40-475 partner): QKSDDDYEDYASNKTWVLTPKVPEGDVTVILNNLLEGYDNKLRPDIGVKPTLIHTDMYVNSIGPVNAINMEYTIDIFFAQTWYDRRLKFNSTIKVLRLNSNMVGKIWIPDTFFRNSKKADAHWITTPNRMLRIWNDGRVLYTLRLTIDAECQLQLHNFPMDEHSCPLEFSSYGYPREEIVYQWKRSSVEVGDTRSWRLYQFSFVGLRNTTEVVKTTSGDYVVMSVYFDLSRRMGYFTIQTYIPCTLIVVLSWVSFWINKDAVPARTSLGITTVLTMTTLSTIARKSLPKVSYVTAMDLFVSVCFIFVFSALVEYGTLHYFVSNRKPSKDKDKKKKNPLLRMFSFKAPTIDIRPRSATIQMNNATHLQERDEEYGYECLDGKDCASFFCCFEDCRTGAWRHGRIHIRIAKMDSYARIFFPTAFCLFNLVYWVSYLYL
# Procedure: Cellular electrophysiology is used to measure the pharmacological properties of GABAA receptor modulators in heterologous cell systems. Each compound is tested for its ability to affect GABA mediated currents at a submaximal agonist dose (GABA EC20=2 μM). HEK293T cells are stably transfected with the α1β2γ2 subunits of the GABAA receptor. Flasks or dishes of HEK293 GABAA cells were maintained in the medium (DMEM, 11% (v/v) heat inactivated FBS, 100 or 200 μg/ml G418, 40 μg/ml Hygromycin B, 80 μg/ml Zeocin) and incubated at 37° C. in a humidified incubator with 5% CO2. 12 to 24 hours prior to electrophysiological recordings, the cells were plated on glass cover slips placed in culture dishes and maintained under the same incubation and media conditions. The number of cells being plated on the cover slip should reach a confluence rate at which majority of the cells are single.
# For the electrophysiological recordings in the study the following external and internal solutions were used (Table 1):
# HEKA EPC 10 USB patch clamp amplifier (from HEKA Elektronik, Germany) was used in the whole cell recording. A cover slip with plenty of single HEK293T-GABAA cells on the surface was removed and placed into a continuously perfused (approximately 1-2 ml/minute) recording chamber mounted on an inverted microscope. GABAA Cl^− current was recorded from single cell using standard whole cell recording techniques. 2 μM GABA was used to evoke GABAA Cl^− current (2 μM of GABA was the EC10-EC20 value of agonist GABA obtained internally on the stable GABAA cells used in this study). After achieving break-in (whole-cell) configuration, the cell was voltage clamped at a holding potential of −80 mV. Only stable cells meeting the recording parameters (membrane resistance Rm>500 MΩ, access resistance (Ra)<15 MΩ, leak current<100 pA in 90% of the recording time) were used. 2 μM GABA was applied to the cell to induce stable Cl^− current first as control for about 2 seconds, test compounds (i.e., compounds of formula (AI), (I), (AII), and (II), or any subgenera thereof) were followed to be applied to the cells for 3 min, then 2 μM GABA was applied to observe the potentiation effect on the GABAA Cl^− current. Different doses of test compound from low to high were applied to the same cell when the cell was stable. A cell was considered stable when current size evoked by 2 μM GABA applied to the cell from time to time was similar. To minimize the possible desensitation of GABAA Cl^− current, duration between applications of test articles was set to 180 seconds.
# Test compounds were dissolved in DMSO to form stock solutions (10 mM). Test compounds were diluted to 0.003, 0.01, 0.03, 0.1, 0.3, 1, 3 and 10 μM in bath solution. AU concentrations of test articles were tested on each cell. Data were analyzed using software provided by HEKA, Microsoft Excel and Graphpad Prism (Table 2).
# [1] = Mouse PK study (i.v. and p.o.); assay type: in vivo; conditions: plasma, male CD1 mice; for half-life: read-out: T1/2 (hr) i.v. (converted); for Vd: read-out: Vss; for bioavailability: 5 mg/kg p.o. vs 1 mg/kg i.v.
# Procedure: Test compounds were dosed to male CD1 mice at 5 mg/kg by oral gavage (p.o.) or 1 mg/kg by intravenous injection (i.v.). Blood samples were taken at 0.083, 0.25, 0.5, 1.0, 3.0, 6.0 and 24 hours post i.v. dosing and at 0.25, 0.5, 1.0, 3.0, 6.0 and 24 hours post p.o. dosing. The plasma concentration of compounds were determined by HPLC.
# [2] = iv, 1 mg/kg i.v., read-out: AUClast (hr*ng/mL) i.v.
# [3] = po, 5 mg/kg p.o., read-out: AUClast (hr*ng/mL) p.o.
structure (smiles),measurement,setting,value
"COc1cccc(-n2nnn(CC(=O)[C@H]3CC[C@H]4[C@@H]5CC[C@@H]6C[C@](C)(O)CC[C@@H]6[C@H]5CC[C@]34C)c2=O)c1 [Example 16, 1-(2-((3R,5R,8R,9R,10S,13S,14S,17S)-3-hydroxy-3,13-dimethylhexadecahydro-1H-cyclopenta[a]phenanthren-17-yl)-2-oxoethyl)-4-(3-methoxyphenyl)-1,4-dihydro-5H-tetrazol-5-one]",pEC50,α1β2γ2 GABAA receptor,8.27
same,Emax,α1β2γ2 GABAA receptor,578%
same,clearance,"[1]; iv, 1 mg/kg i.v.",33 mL/min/kg
same,AUC(0-t),[1]; [2],500 ng·h/mL
same,half-life,"[1]; iv, 1 mg/kg i.v.",0.9 h
same,Vd,"[1]; iv, 1 mg/kg i.v.",1.54 L/kg
same,Cmax,"[1]; po, 5 mg/kg p.o.",109 ng/mL
same,Tmax,"[1]; po, 5 mg/kg p.o.",0.5 h
same,bioavailability,[1]; po,15.1%
same,AUC(0-t),[1]; [3],330 ng·h/mL
"C[C@@]1(O)CC[C@H]2[C@H](CC[C@@H]3[C@@H]2CC[C@]2(C)[C@@H](C(=O)Cn4nnn(C5CCCC5)c4=O)CC[C@@H]32)C1 [Example 8, 1-cyclopentyl-4-(2-((3R,5R,8R,9R,10S,13S,14S,17S)-3-hydroxy-3,13-dimethylhexadecahydro-1H-cyclopenta[a]phenanthren-17-yl)-2-oxoethyl)-1,4-dihydro-5H-tetrazol-5-one]",pEC50,α1β2γ2 GABAA receptor,7.02
same,clearance,"[1]; iv, 1 mg/kg i.v.",140 mL/min/kg
same,AUC(0-t),[1]; [2],117 ng·h/mL
same,half-life,"[1]; iv, 1 mg/kg i.v.",0.73 h
same,Vd,"[1]; iv, 1 mg/kg i.v.",2.38 L/kg
same,Cmax,"[1]; po, 5 mg/kg p.o.",22 ng/mL
same,Tmax,"[1]; po, 5 mg/kg p.o.",0.66 h
same,bioavailability,[1]; po,4.48%
same,AUC(0-t),[1]; [3],26 ng·h/mL
"C[C@@]1(O)CC[C@H]2[C@H](CC[C@@H]3[C@@H]2CC[C@]2(C)[C@@H](C(=O)Cn4nn[nH]c4=O)CC[C@@H]32)C1 [Example 19, 1-(2-((3R,5R,8R,9R,10S,13S,14S,17S)-3-hydroxy-3,13-dimethylhexadecahydro-1H-cyclopenta[a]phenanthren-17-yl)-2-oxoethyl)-1,4-dihydro-5H-tetrazol-5-one]",pEC50,α1β2γ2 GABAA receptor,4.62
"C[C@@]1(O)CC[C@H]2[C@H](CC[C@@H]3[C@@H]2CC[C@]2(C)[C@@H](C(=O)Cn4nnn(-c5ccn[nH]5)c4=O)CC[C@@H]32)C1 [Example 25, 1-(2-((3R,5R,8R,9R,10S,13S,14S,17S)-3-hydroxy-3,13-dimethylhexadecahydro-1H-cyclopenta[a]phenanthren-17-yl)-2-oxoethyl)-4-(1H-pyrazol-5-yl)-1,4-dihydro-5H-tetrazol-5-one]",pEC50,α1β2γ2 GABAA receptor,6.89
same,clearance,"[1]; iv, 1 mg/kg i.v.",6.5 mL/min/kg
same,AUC(0-t),[1]; [2],2480 ng·h/mL
same,half-life,"[1]; iv, 1 mg/kg i.v.",4.63 h
same,Vd,"[1]; iv, 1 mg/kg i.v.",1.88 L/kg
same,Cmax,"[1]; po, 5 mg/kg p.o.",1190 ng/mL
same,Tmax,"[1]; po, 5 mg/kg p.o.",3 h
same,bioavailability,[1]; po,106%
same,AUC(0-t),[1]; [3],12800 ng·h/mL
"Cn1cc(-n2nnn(CC(=O)[C@H]3CC[C@H]4[C@@H]5CC[C@@H]6C[C@](C)(O)CC[C@@H]6[C@H]5CC[C@]34C)c2=O)cn1 [Example 29, 1-(2-((3R,5R,8R,9R,10S,13S,14S,17S)-3-hydroxy-3,13-dimethylhexadecahydro-1H-cyclopenta[a]phenanthren-17-yl)-2-oxoethyl)-4-(1-methyl-1H-pyrazol-4-yl)-1,4-dihydro-5H-tetrazol-5-one]",pEC50,α1β2γ2 GABAA receptor,6.55
"C[C@@]1(O)CC[C@H]2[C@H](CC[C@@H]3[C@@H]2CC[C@]2(C)[C@@H](C(=O)Cn4nnn(-c5cccnc5)c4=O)CC[C@@H]32)C1 [Example 18, 1-(2-((3R,5R,8R,9R,10S,13S,14S,17S)-3-hydroxy-3,13-dimethylhexadecahydro-1H-cyclopenta[a]phenanthren-17-yl)-2-oxoethyl)-4-(pyridin-3-yl)-1,4-dihydro-5H-tetrazol-5-one]",pEC50,α1β2γ2 GABAA receptor,7.41
same,Emax,α1β2γ2 GABAA receptor,757%
same,clearance,"[1]; iv, 1 mg/kg i.v.",56.5 mL/min/kg
same,AUC(0-t),[1]; [2],270 ng·h/mL
same,half-life,"[1]; iv, 1 mg/kg i.v.",0.29 h
same,Vd,"[1]; iv, 1 mg/kg i.v.",1.33 L/kg
same,Cmax,"[1]; po, 5 mg/kg p.o.",297 ng/mL
same,Tmax,"[1]; po, 5 mg/kg p.o.",1 h
same,bioavailability,[1]; po,50.1%
same,AUC(0-t),[1]; [3],692 ng·h/mL
"Cn1ccc(-n2nnn(CC(=O)[C@H]3CC[C@H]4[C@@H]5CC[C@@H]6C[C@](C)(O)CC[C@@H]6[C@H]5CC[C@]34C)c2=O)n1 [Example 27, 1-(2-((3R,5R,8R,9R,10S,13S,14S,17S)-3-hydroxy-3,13-dimethylhexadecahydro-1H-cyclopenta[a]phenanthren-17-yl)-2-oxoethyl)-4-(1-methyl-1H-pyrazol-3-yl)-1,4-dihydro-5H-tetrazol-5-one]",pEC50,α1β2γ2 GABAA receptor,6.92
same,clearance,"[1]; iv, 1 mg/kg i.v.",14.5 mL/min/kg
same,AUC(0-t),[1]; [2],1110 ng·h/mL
same,half-life,"[1]; iv, 1 mg/kg i.v.",1.09 h
same,Vd,"[1]; iv, 1 mg/kg i.v.",1.14 L/kg
same,Cmax,"[1]; po, 5 mg/kg p.o.",1070 ng/mL
same,Tmax,"[1]; po, 5 mg/kg p.o.",1 h
same,bioavailability,[1]; po,153%
same,AUC(0-t),[1]; [3],8770 ng·h/mL
"C[C@@]1(O)CC[C@H]2[C@H](CC[C@@H]3[C@@H]2CC[C@]2(C)[C@@H](C(=O)Cn4nnn(-c5cocn5)c4=O)CC[C@@H]32)C1 [Example 24, 1-(2-((3R,5R,8R,9R,10S,13S,14S,17S)-3-hydroxy-3,13-dimethylhexadecahydro-1H-cyclopenta[a]phenanthren-17-yl)-2-oxoethyl)-4-(oxazol-4-yl)-1,4-dihydro-5H-tetrazol-5-one]",pEC50,α1β2γ2 GABAA receptor,7.19
same,Emax,α1β2γ2 GABAA receptor,698%
same,clearance,"[1]; iv, 1 mg/kg i.v.",15.5 mL/min/kg
same,AUC(0-t),[1]; [2],998 ng·h/mL
same,half-life,"[1]; iv, 1 mg/kg i.v.",1.57 h
same,Vd,"[1]; iv, 1 mg/kg i.v.",1.87 L/kg
same,Cmax,"[1]; po, 5 mg/kg p.o.",775 ng/mL
same,Tmax,"[1]; po, 5 mg/kg p.o.",3 h
same,bioavailability,[1]; po,172%
same,AUC(0-t),[1]; [3],9180 ng·h/mL
"C[C@@]1(O)CC[C@H]2[C@H](CC[C@@H]3[C@@H]2CC[C@]2(C)[C@@H](C(=O)Cn4nnn(-c5cnco5)c4=O)CC[C@@H]32)C1 [Example 23, 1-(2-((3R,5R,8R,9R,10S,13S,14S,17S)-3-hydroxy-3,13-dimethylhexadecahydro-1H-cyclopenta[a]phenanthren-17-yl)-2-oxoethyl)-4-(oxazol-5-yl)-1,4-dihydro-5H-tetrazol-5-one]",pEC50,α1β2γ2 GABAA receptor,7.02
"C[C@@]1(O)CC[C@H]2[C@H](CC[C@@H]3[C@@H]2CC[C@]2(C)[C@@H](C(=O)Cn4nnn(C5CC5)c4=O)CC[C@@H]32)C1 [Example 6, 1-cyclopropyl-4-(2-((3R,5R,8R,9R,10S,13S,14S,17S)-3-hydroxy-3,13-dimethylhexadecahydro-1H-cyclopenta[a]phenanthren-17-yl)-2-oxoethyl)-1,4-dihydro-5H-tetrazol-5-one]",pEC50,α1β2γ2 GABAA receptor,6.18
"C[C@@]1(O)CC[C@H]2[C@H](CC[C@@H]3[C@@H]2CC[C@]2(C)[C@@H](C(=O)Cn4nnn(CC#N)c4=O)CC[C@@H]32)C1 [Example 20, 2-(4-(2-((3R,5R,8R,9R,10S,13S,14S,17S)-3-hydroxy-3,13-dimethylhexadecahydro-1H-cyclopenta[a]phenanthren-17-yl)-2-oxoethyl)-5-oxo-4,5-dihydro-1H-tetrazol-1-yl)acetonitrile]",pEC50,α1β2γ2 GABAA receptor,6.25
"C[C@@]1(O)CC[C@H]2[C@H](CC[C@@H]3[C@@H]2CC[C@]2(C)[C@@H](C(=O)Cn4nnn(C5CCCCC5)c4=O)CC[C@@H]32)C1 [Example 9, 1-cyclohexyl-4-(2-((3R,5R,8R,9R,10S,13S,14S,17S)-3-hydroxy-3,13-dimethylhexadecahydro-1H-cyclopenta[a]phenanthren-17-yl)-2-oxoethyl)-1,4-dihydro-5H-tetrazol-5-one]",pEC50,α1β2γ2 GABAA receptor,5.86
"C[C@@]1(O)CC[C@H]2[C@H](CC[C@@H]3[C@@H]2CC[C@]2(C)[C@@H](C(=O)Cn4nnn(CCC#N)c4=O)CC[C@@H]32)C1 [Example 21, 3-(4-(2-((3R,5R,8R,9R,10S,13S,14S,17S)-3-hydroxy-3,13-dimethylhexadecahydro-1H-cyclopenta[a]phenanthren-17-yl)-2-oxoethyl)-5-oxo-4,5-dihydro-1H-tetrazol-1-yl)propanenitrile]",pEC50,α1β2γ2 GABAA receptor,6.54
